Reference: patent US20130012472A1, “COMPOSITION AND METHODS OF INHIBITING GASTROINTESTINAL PATHOGEN INFECTION” (Boston College, priority 2011, published 2013)

Assays:
IL-8 [1] = test: ELISA of IL-8 secretion by ETEC-infected IECs; assay type: cell-based; details: for IL-8 secretion induced by ETEC invasion: ETEC-infected IECs with inhibitors, FIGS. 3D and 3E
Description: (§1) Intestinal epithelial cells (IECs) such as HCT8, T84, Caco2, H4, and FHs74 cells, were cultured in 24-well tissue culture plates (Corning life Sciences Inc, MA) at 5×10^4 cells/well in antibiotic free media for 48 hours. The IEC cells, with or without treatment of HMOS or TFiLNO, were incubated with a suspension of ETEC H10407 cells (10^5-10^9 cfu) for 1 h at 37° C. […] gentamicin was then added to the culture to kill any extracellular bacteria cells. Cell lysis was performed in 500 μl of 0.5% Triton X-100 (Sigma, Mo.) for 30 minutes at room temperature. The cell lysates were plated on difco agar plates (antibiotic free) at a proper dilution of 500. The total number of cell-associated bacteria was determined as the number of bacteria in IEC lysate immediately after infection. The number of invaded bacteria was determined as those detected in IEC cell lysate prepared from IECs treated with gentamycin for 1 hour after bacterial infection. The number of bacteria adhered to IEC cells was calculated as follows: (The total number of cell-associated bacteria)−(The number of invaded bacteria). All of the adhesion and invasion assays were performed in duplicate in at least three independent experiments.
(§2) Levels of proinflammatory factors (IL-8, IL-6, TNF-α, and MCP-1) in the culture supernatants of the IECs were measured using ELISA kits from R&D following manufacturer's protocols.

ETEC H10407 = test: Bacteria invasion assay (adherence and invasion of ETEC to IECs); assay type: cell-based, Escherichia coli
Description: as §1

IL-8 [2] = test: LPS-stimulated IL-8 secretion by T84 cells in the absence of ETEC (ELISA); assay type: cell-based; details: TFiLNO 30 pg/ml, 1 h at 37° C., FIG. 7A
Description: as §2
To examine the effect of TFiLNO on IL-8 production, this oligosaccharide (30 pg/ml) was incubated with T84 cells in the absence of ETEC for 1 h at 37° C. IL-8 secretion to the culture medium was determined by ELISA. […] See also FIGS. 7B and 7C.

CD14 = CD14 expression on IECs (RT-PCR, FACS); assay type: cell-based, human; details: TFiLNO-treated IECs; FIGS. 7B and 7C
Description: IEC cells (e.g., T84 cells) were treated with HMOS (5 mg/mL) prepared as described above for 48 hours. Cells not treated by HMOS were used as a negative control. Total RNAs were purified from the IEC cells and RT-PCR was performed following routine methods to determine the expression levels of genes of interest, including those shown in FIG. 7B. GADPH was used as an internal control. The relative gene expression levels were determined by Delta CT Method. T84 cells treated with or without HMOS were incubated with PE-conjugated mouse anti-human CD14 Mabs. PE-conjugated isotype-matched (IgG1) antibodies were used as controls. Data respecting 20,000 live cells from each sample were collected and subjected to FACS analysis following routine procedures.

ETEC [3] = test: Wash-out experiments (IECs pre-incubated with TFiLNO, washed, then ETEC invasion); assay type: cell-based, Escherichia coli; details: IECs incubated 48 hours with 30 pg/mL TFiLNO, washed 6 times with PBS; FIG. 6C
Description: IECs were grown in 24-well tissue culture plates (Corning life Sciences Inc, MA) at 5×10^4 cells/well in an antibiotic free medium for 48 hours. The culture medium was then replaced with a fresh medium containing 30 pg/mL TFiLNO. The IECs were further incubated at 37° C. for 48 hours. Supernatants were discarded and cells were washed 6 times with PBS. The cells were then incubated in a fresh medium free of TFiLNO and contains ETEC (10^8). After 1 hour incubation, extracellular bacteria were killed by gentamycin. Invaded ETEC were measured as described previously.

ETEC [4] = test: Pre-incubation assay (ETEC pre-incubated with TFiLNO, then invasion of T84 cells); assay type: cell-based, Escherichia coli; details: ETEC pre-incubated 2 h with TFiLNO 30 pg/mL, then T84 cells 1 hour; FIG. 6B
Description: ETEC cells in mid-logarithmic growth phase were re-suspended in PBS (pH 7.2) at a concentration of 2×10^8 cells/ml. The suspension was mixed with an equal volume of PBS in the presence or absence of TFiLNO (30 pg/mL), and incubated in U-bottom 96-well plates at room temperature for 2 h with brief mixing every 15 min. At the end of the incubation, the ETEC cells were co-incubated with T84 cells for 1 hour at 37° C. After extracellular bacteria were killed by gentamycin, invaded ETEC were measured as described above.

ETEC [5] = test: Bacteria killing assay; assay type: cell-based, Escherichia coli; details: TFiLNO 30 pg/ml; FIG. 6A

Row | Compound | IL-8 secretion induced by ETEC invasion (IL-8 [1]) | ETEC invasion of IEC cells (ETEC H10407; cytochalasin D, FIG. 3D) | IL-8 secretion stimulated by LPS (IL-8 [2]) | CD14 expression on IECs (CD14) | inhibitory activity against ETEC invasion after washing off preincubated TFiLNO (ETEC [3]) | secretion of IL-8 by the treated IEC cells (IL-8 [1]; TFiLNO 30 pg/ml, ETEC-infected IEC cells, over time, FIG. 5C) | adherence of ETEC to IEC cells (ETEC H10407; TFiLNO 30 pg/ml, FIG. 5A) | invasion of ETEC to IEC cells (ETEC H10407; TFiLNO 30 pg/ml, FIG. 5B) | invasion of ETEC after pre-incubation of ETEC with TFiLNO (ETEC [4]) | killing of ETEC (ETEC [5])
1 | C=C1[C@@H](C)[C@H]2[C@H](Cc3ccccc3)NC(=O)[C@]23[C@H](OC(C)=O)/C=C/[C@@](C)(O)C(=O)[C@@H](C)C/C=C/[C@H]3[C@@H]1O [cytochalasin D, reference compound] | inhibited | Inhibition of invasion | – | – | – | – | – | – | – | –
2 | polymycin-B | reduced | – | – | – | – | – | – | – | – | –
3 | Trifucosyl(1,2-1,2-1,3)-lacto-N-octoase [TFiLNO] | – | – | directly inhibited | suppression | did not affect | significantly reduced | inhibit | inhibit | could not be further inhibited | did not kill
